The values that follow come from patent publication US20030082226A1, “Non-steroidal antiinflammatory drug formulations for topical application to the skin” (priority 1997, published 2003).

A short description of this series: Delivery of various NSAIDs through human skin, effect of propylene glycol, static cells (Example 8). Type of series: in vitro ADME. The following applies: 10% enhancer; for Avg 24 Hour % Dose: ethanol:water 70:30, pH about 7, human skin; for effect of propylene glycol on total delivery (percent of original dose) at twenty four hours: 0 to 20% PG. The text has this:
All the tested formulations included ethanol and water at a 70:30 weight ratio and were neutralized with base to a pH of about 7.

As to `O=C(c1ccccc1)c1ccc2n1CCC2C(=O)O` (stereo not shown) [Ketorolac], the “effect of propylene glycol on total delivery (percent of original dose) at twenty four hours” value is on record as “intermediate”. Also, for the setting “0% PG”, the “Avg 24 Hour % Dose” value came out at 10.8%. The “Avg 24 Hour % Dose” value (5% PG) amounted to 27.1%. Moreover, for the setting “10% PG”, the “Avg 24 Hour % Dose” value is 25.0%. The “Avg 24 Hour % Dose” value (20% PG) was determined as 19.3%.
`O=C(O)Cc1ccccc1Nc1c(Cl)cccc1Cl` [Diclofenac]: the “Avg 24 Hour % Dose” value by setting is: (0% PG) 18.7%; (5% PG) 29.7%; (10% PG) 35.3%; (20% PG) 45.2%.
Take `CN1C(C(=O)Nc2ccccn2)=C(O)c2ccccc2S1(=O)=O` [Piroxicam]: the “effect of propylene glycol on total delivery (percent of original dose) at twenty four hours” value was “substantially neutral”. Moreover, the “Avg 24 Hour % Dose” value (0% PG) was found to be 66.3%. Under “10% PG”, the “Avg 24 Hour % Dose” value is 55.1%. Also, for the setting “20% PG”, the “Avg 24 Hour % Dose” value is on record as 63.5%.
For the molecule `CC(C)Cc1ccc(C(C)C(=O)O)cc1` (stereo not shown) [Ibuprofen], the “Avg 24 Hour % Dose” value was 61.7% (0% PG); 57.9% (5% PG); 56.5% (10% PG); 50.1% (15% PG); 28.3% (20% PG).
Take `CC(C(=O)O)c1cccc(C(=O)c2ccccc2)c1` (stereo not shown) [Ketoprofen]: the “Avg 24 Hour % Dose” value reads like this: (0% PG) 9.1%; (5% PG) 10.3%; (10% PG) 12.0%; (20% PG) 27.0%.
